Data from PubChem BioAssay AID248 (DTP/NCI, 2004).
Several values for one entry are separate records, joined by “and”; a condition that tells them apart may be missing. Identical values can stand only once. Toxic doses and inconclusive results are not listed. Cut-off read from the data, not from the text of the source: active = T/C of 150% or more; inactive = T/C below 125%.

Test system: L1210 leukemia ip in BDF1 mice, survival T/C
Assay: NCI In Vivo Anticancer Drug Screen. Data for tumor model L1210 Leukemia (intraperitoneal) in B6D2F1 (BDF1) mice
Settings: endpoint: mean survival time, higher = longer survival
Outline: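 Read-out is survival time, reported as the treated-group measurement over the vehicle-control measurement.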

[1] = dose: 50.0 mg/kg/injection, schedule: Q01DX009 (ip), vehicle: saline
[2] = dose: 50.0 mg/kg/injection, schedule: Q04DX003 (ip), vehicle: saline
[3] = dose: 100.0 mg/kg/injection, schedule: Q01DX001 (ip), vehicle: saline
[4] = dose: 100.0 mg/kg/injection, schedule: Q01DX009 (ip), vehicle: saline
[5] = dose: 100.0 mg/kg/injection, schedule: Q04DX003 (ip), vehicle: saline
[6] = dose: 200.0 mg/kg/injection, schedule: Q01DX001 (ip), vehicle: saline
[7] = dose: 200.0 mg/kg/injection, schedule: Q04DX003 (ip), vehicle: saline
[8] = dose: 100.0 mg/kg/injection, schedule: Q01DX001 (ip), vehicle: saline with Tween-80
[9] = dose: 200.0 mg/kg/injection, schedule: Q01DX001 (ip), vehicle: saline with Tween-80
[10] = dose: 400.0 mg/kg/injection, schedule: Q01DX001 (ip), vehicle: saline with Tween-80
[11] = dose: 100.0 mg/kg/injection, schedule: Q04DX003 (ip), vehicle: Klucel (hydroxypropylcellulose) (HPC)
[12] = dose: 200.0 mg/kg/injection, schedule: Q04DX003 (ip), vehicle: Klucel (hydroxypropylcellulose) (HPC)
[13] = dose: 400.0 mg/kg/injection, schedule: Q04DX003 (ip), vehicle: Klucel (hydroxypropylcellulose) (HPC)
[14] = dose: 400.0 mg/kg/injection, schedule: Q04DX003 (ip), vehicle: saline
[15] = dose: 100.0 mg/kg/injection, schedule: Q04DX002 (ip), vehicle: saline
[16] = dose: 200.0 mg/kg/injection, schedule: Q04DX002 (ip), vehicle: saline
[17] = dose: 400.0 mg/kg/injection, schedule: Q04DX002 (ip), vehicle: saline
[18] = dose: 100.0 mg/kg/injection, schedule: Q01DX009 (ip), vehicle: saline with Tween-80
[19] = dose: 100.0 mg/kg/injection, schedule: Q04DX003 (ip), vehicle: saline with Tween-80
[20] = dose: 200.0 mg/kg/injection, schedule: Q01DX009 (ip), vehicle: saline with Tween-80
[21] = dose: 200.0 mg/kg/injection, schedule: Q04DX003 (ip), vehicle: saline with Tween-80
[22] = dose: 400.0 mg/kg/injection, schedule: Q04DX003 (ip), vehicle: saline with Tween-80
[23] = dose: 100.0 mg/kg/injection, schedule: Q01DX009 (ip), vehicle: Klucel (hydroxypropylcellulose) (HPC)
[24] = dose: 200.0 mg/kg/injection, schedule: Q01DX009 (ip), vehicle: Klucel (hydroxypropylcellulose) (HPC)
[25] = dose: 12.5 mg/kg/injection, schedule: Q01DX009 (ip), vehicle: saline
[26] = dose: 25.0 mg/kg/injection, schedule: Q01DX009 (ip), vehicle: saline
[27] = dose: 400.0 mg/kg/injection, schedule: Q01DX001 (ip), vehicle: saline

Measured: T/C

COC1C(OC(=O)/C=C/C=C/C=C/C=C/C(=O)O)CCC2(CO2)C1C1(C)OC1CC=C(C)C (stereo not drawn)
inactive: dose: 2.5 mg/kg/injection, schedule: Q01DX Z (ip), vehicle: methylcellulose (MC) 115 % of control | dose: 5.0 mg/kg/injection, schedule: Q01DX Z (ip), vehicle: methylcellulose (MC) 110 % of control | dose: 10.0 mg/kg/injection, schedule: Q01DX Z (ip), vehicle: methylcellulose (MC) 115 % of control | dose: 10.0 mg/kg/injection, schedule: Q01DX Z (ip), vehicle: saline 109 % of control | dose: 20.0 mg/kg/injection, schedule: Q01DX Z (ip), vehicle: methylcellulose (MC) 118 % of control | dose: 20.0 mg/kg/injection, schedule: Q01DX Z (ip), vehicle: saline 115 % of control | dose: 40.0 mg/kg/injection, schedule: Q01DX Z (ip), vehicle: methylcellulose (MC) 121 % of control | dose: 40.0 mg/kg/injection, schedule: Q01DX Z (ip), vehicle: saline 123 % of control | [1] 101 % of control | [2] 116 % of control | dose: 80.0 mg/kg/injection, schedule: Q01DX Z (ip), vehicle: saline 120 % of control | [3] 93 % of control | [4] 101 % of control | [5] 93 % of control | [6] 93 % of control | dose: 200.0 mg/kg/injection, schedule: Q01DX009 (ip), vehicle: saline 106 % of control | [7] 98 % of control

O=C(CSc1cc(Cl)c(Cl)cc1Cl)Nc1cccc(Cl)c1
inactive: [8] 95 % of control | [9] 98 % of control | [10] 90 % of control

COC(=O)C(NC(=O)COc1ccccc1[N+](=O)[O-])C(=O)OC
inactive: [8] 100 % of control | [9] 95 % of control | [10] 97 % of control

CC(C)c1ccccc1O
inactive: [11] 94 % of control | [12] 95 % of control | [13] 90 % of control

C=C(C)CC(N)Cc1ccccc1 (stereo not drawn)
inactive: dose: 50.0 mg/kg/injection, schedule: Q04DX002 (ip), vehicle: saline with Tween-80 89 % of control | dose: 100.0 mg/kg/injection, schedule: Q04DX002 (ip), vehicle: saline with Tween-80 95 % of control and 103 % of control

O=C(O)c1c[nH]c2c(C(F)(F)F)cccc2c1=O
inactive: dose: 50.0 mg/kg/injection, schedule: Q01DX001 (ip), vehicle: carboxymethylcellulose (CMC) 88 % of control | dose: 100.0 mg/kg/injection, schedule: Q01DX001 (ip), vehicle: carboxymethylcellulose (CMC) 98 % of control | dose: 200.0 mg/kg/injection, schedule: Q01DX001 (ip), vehicle: carboxymethylcellulose (CMC) 88 % of control | dose: 400.0 mg/kg/injection, schedule: Q01DX001 (ip), vehicle: carboxymethylcellulose (CMC) 90 % of control

CC(C)(C)CC(C)(C)c1ccc(OCCOc2ccc(C(N)=O)cc2[N+](=O)[O-])cc1
inactive: [5] 94 % of control | [7] 105 % of control | [14] 97 % of control

CCCCCCCCCCC(C)c1ccc(S(=O)(=O)O)cc1 (stereo not drawn)
inactive: dose: 100.0 mg/kg/injection, schedule: Q01DX001 (ip), vehicle: saline sonified 97 % of control | dose: 200.0 mg/kg/injection, schedule: Q01DX001 (ip), vehicle: saline sonified 107 % of control

COc1ccc(C(C)=O)cc1OC
inactive: dose: 100.0 mg/kg/injection, schedule: Q01DX009 (ip), vehicle: saline sonified 92 % of control | dose: 200.0 mg/kg/injection, schedule: Q01DX009 (ip), vehicle: saline sonified 88 % of control | dose: 400.0 mg/kg/injection, schedule: Q01DX009 (ip), vehicle: saline sonified 100 % of control

C=CCN1CCCC1=O
inactive: [5] 95 % of control | [7] 96 % of control | [14] 95 % of control

c1ccc2c[n+](CC[n+]3ccc4ccccc4c3)ccc2c1
inactive: dose: 75.0 mg/kg/injection, schedule: Q04DX003 (ip), vehicle: saline 98 % of control

Cc1ccc(NC2OC(CO)C(O)C(O)C2O)cc1 (stereo not drawn)
inactive: dose: 75.0 mg/kg/injection, schedule: Q01DX001 (ip), vehicle: steriod suspending solution 99 % of control | dose: 150.0 mg/kg/injection, schedule: Q01DX001 (ip), vehicle: steriod suspending solution 94 % of control | dose: 300.0 mg/kg/injection, schedule: Q01DX001 (ip), vehicle: steriod suspending solution 94 % of control

NC1CC(=O)NC1=O (stereo not drawn)
inactive: [15] 93 % of control | [16] 100 % of control | [17] 100 % of control

Cc1csc(C)n1
inactive: [18] 95 % of control | [19] 103 % of control | [20] 95 % of control | [21] 107 % of control | [22] 107 % of control

O=C(O)CC/C(=N/O)c1ccccc1
inactive: dose: 50.0 mg/kg/injection, schedule: Q01DX009 (ip), vehicle: Klucel (hydroxypropylcellulose) (HPC) 93 % of control | [23] 98 % of control | [24] 92 % of control

Cc1ccc(S(=O)(=O)OCCC2=CCC3CC2C3(C)C)cc1 (stereo not drawn)
inactive: [15] 103 % of control | [16] 95 % of control | [17] 95 % of control

OC(CBr)C(O)CBr (stereo not drawn)
inactive: [25] 101 % of control | [26] 97 % of control | [1] 97 % of control

COc1nc(NNC(N)=S)ccc1[N+](=O)[O-]
inactive: [11] 91 % of control | [12] 93 % of control | [13] 93 % of control

CN(C)C(=O)Sc1c(Cl)cc(S(=O)(=O)F)cc1Cl
inactive: [24] 105 % of control

CCN(CC)CCOC(=O)Nc1ccccc1
inactive: [2] 98 % of control | [5] 90 % of control

O=[N+]([O-])c1cc(/C=N/N=C2c3ccccc3-c3ccccc32)ccc1Cl
inactive: dose: 75.0 mg/kg/injection, schedule: Q01DX001 (ip), vehicle: other 86 % of control | dose: 300.0 mg/kg/injection, schedule: Q01DX001 (ip), vehicle: other 91 % of control

c1cc2c(cc1CCCCCCCCCCc1ccc3c(c1)CCC3)CCC2
inactive: [3] 97 % of control | [6] 97 % of control | [27] 89 % of control

C#CCCC#C
inactive: dose: 50.0 mg/kg/injection, schedule: Q01DX009 (ip), vehicle: saline with Tween-80 104 % of control | [18] 109 % of control | [19] 103 % of control | [20] 102 % of control | [21] 104 % of control

Oc1c(Br)cc(Br)cc1C=Nc1ccc(Cl)cc1.Oc1c(Br)cc(Br)cc1C=Nc1ccc(Cl)cc1.[Co]
inactive: [19] 98 % of control | [21] 103 % of control | [22] 98 % of control

COc1nc2ccccc2n1C1OC(CO)C(O)C1O (stereo not drawn)
inactive: [3] 97 % of control | [6] 100 % of control | [27] 105 % of control

O=C(NCCCl)Nc1cccc2cccnc12
inactive: [23] 100 % of control | [11] 100 % of control | [24] 98 % of control | [12] 102 % of control | dose: 400.0 mg/kg/injection, schedule: Q01DX009 (ip), vehicle: Klucel (hydroxypropylcellulose) (HPC) 98 % of control | [13] 94 % of control

C/C(=N/N(C)C)c1ccc(F)cc1
inactive: dose: 6.25 mg/kg/injection, schedule: Q01DX009 (ip), vehicle: saline 94 % of control | [25] 98 % of control | [26] 106 % of control | [1] 101 % of control | [4] 94 % of control

CN1CCCC2C(c3ccccc3)C(C3=NCCCC3)C(c3ccccc3)CC21 (stereo not drawn)
inactive: [3] 88 % of control
